Measurements published in article PMC3387161, “Small Molecules Targeted to a Non-Catalytic “RVxF” Binding Site of Protein Phosphatase-1 Inhibit HIV-1” (PLoS ONE, 2012).

What was measured:
CMV promoter = assay: Control CMV promoter transcription (CMV-EGFP) in 293T cells; settings: 10 µM
PP1α = PP1α (Homo sapiens, UniProt P62136); assay: Nuclear and cytoplasmic distribution of PP1α-EGFP in HeLa and 293T cells; format: cell-based; set-up: expressed in transfected cells; host or cells: HeLa; 293T
From the text: In live cells, PP1α is dynamically distributed between the cytoplasm and the nucleus, and its shuttling into the nucleus is thought to be regulated by its interaction with sds22 and inhibitor-3 regulatory subunits. […] We analyzed the effect of 1H4 on nuclear localization of PP1α in HeLa cells that were transfected with Flag-Tat and PP1α-EGFP expression vectors and treated with 1H4 or a control compound for 18hrs. In untreated cells, PP1α was localized in the perinuclear area and cytoplasm (Fig. 8A). Co-expression of Tat increased nuclear and perinuclear localization of PP1α (Fig. 8B). Co-expression of mutant Tat ^35QACA^38 in contrast led to a more homogeneous distribution of PP1α (Fig. 8C). […] To achieve quantifiable results, we measured fluorescence of PP1α-EGFP in nuclear and cytoplasmic fractions of 293T cells that were transfected with PP1α-EGFP or PP1α-EGFP and Tat expression vectors and treated with 1H4. […]
Figure 8 1H4 compound disrupts the Tat-mediated translocation of PP1 into the nucleus. […] Fluorescence was measured in the nuclear and cytoplasmic fractions using Perkin-Elmer Luminoscan. […]
Nuclear and cytoplasmic extracts were prepared using a modification of previously described method. […] Fluorescence was measured in cytoplasmic and nuclear lysates at 480 nm excitation and 510 nm emission on Luminescence Spectrometer LS50B (Perkin-Elmer).

[1] = system: interaction of Tat with PP1α; format: cell-based, human
293T cells = assay: Cellular proteome analysis by mass spectrometry in 293T cells; format: cell-based, human; settings: 10 µM, 18 h, 28 proteins with highest SEQUEST scores
Experimental: To determine if 1H4 has a negative effect on protein expression profiles, we analyzed the global cellular proteome by mass spectrometry. Protein expression was analyzed in 293T cells untreated or treated with 1H4 as described in Materials and Methods. We detected expression of 1722 proteins in the untreated sample and 1739 proteins in the 1H4-treated sample (not shown).
Samples were separated by reversed-phase liquid chromatography (HPLC), using micro-capillary column C18, coupled in line with nanospray and tandem mass spectrometer Thermo LTQ Orbitrap XL. The LC gradient was run for 60 min from 2% to 30% of acetonitrile containing 0.1% formic acid at flow rate 400 nL/min. In single measurement block we performed 1 FT MS scan and 3 data dependent FT MS/MS scans on major multi-charged MS peaks with resolution 30000. The normalized collision-induced dissociation (CID) energy was 35%. The MS/MS spectra were compared against those in the NCBI human protein database. Proteins that were not present in the database, i.e. recombinant Flag-Tat, were manually added to the database. Only peptides having X-correlation (X corr) cutoffs of 1.9 for [M +2H]^2+, 2.3 for [M +3H]^3+ and higher charge state were considered. […]
As a negative control untreated cells were used. […] The MS-MS data were analyzed by SEQUEST.

[2] = molecular target: PP1 association with Tat, NIPP1 and PNUTS (Homo sapiens, UniProt P62136); format: cell-based; settings: Tat-transfected 293T cells, LC-MS peak amplitude
PP1 association with Tat, NIPP1 and PNUTS, sequence (P62136 2-330): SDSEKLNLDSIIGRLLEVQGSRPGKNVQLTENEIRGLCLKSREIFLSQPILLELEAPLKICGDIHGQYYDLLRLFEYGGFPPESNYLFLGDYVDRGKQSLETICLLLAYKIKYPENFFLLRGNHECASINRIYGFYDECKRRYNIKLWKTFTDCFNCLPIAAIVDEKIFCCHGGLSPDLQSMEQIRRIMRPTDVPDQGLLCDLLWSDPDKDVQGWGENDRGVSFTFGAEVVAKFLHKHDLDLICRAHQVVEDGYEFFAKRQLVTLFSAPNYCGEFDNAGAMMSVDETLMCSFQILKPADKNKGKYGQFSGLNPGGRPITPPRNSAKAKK

HIV-1 NL4-3 = assay: HIV-1 replication in MT4 cells, reverse transcriptase activity; settings: HIV-1 NL4-3, tested at 2, 10, 25 µM, RT activity over 8 days
CEM cells = assay: Toxicity by propidium iodide fluorescence in CEM-GFP cells; format: cell-based; settings: Homo sapiens, CCRF-CEM, 3 µM to 45 µM, 24 h
[3] = system: HIV-1 transcription in CEM-GFP cells; assay: cells; format: cell-based

PP1α, sequence (P62136 whole entry): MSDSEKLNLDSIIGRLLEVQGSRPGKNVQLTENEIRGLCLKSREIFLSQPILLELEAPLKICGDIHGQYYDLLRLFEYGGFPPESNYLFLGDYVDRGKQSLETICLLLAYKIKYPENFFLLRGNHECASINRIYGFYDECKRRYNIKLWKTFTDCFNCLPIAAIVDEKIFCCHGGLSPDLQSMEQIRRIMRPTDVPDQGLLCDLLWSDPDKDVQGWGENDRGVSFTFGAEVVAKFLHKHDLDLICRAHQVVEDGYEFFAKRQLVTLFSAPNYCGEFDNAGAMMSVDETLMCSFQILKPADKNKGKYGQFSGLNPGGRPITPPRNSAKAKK

COCCNC(=O)COC(=O)c1c2c(nc3ccccc13)/C(=C/c1ccc(O)cc1)CCC2 [1H4]
Effect on transcription from control CMV promoter (CMV promoter): did not inhibit transcription from a control CMV promoter
Nuclear PP1α-EGFP fluorescence in fractionated cells (PP1α; 293T cells, absence and presence of Tat, versus untreated or 1G3): significant decrease of nuclear PP1α-EGFP
Nuclear localization of PP1α in presence of Tat (fluorescence microscopy) (PP1α; HeLa cells, Flag-Tat and PP1α-EGFP, 10 µM, 18 hours): diminished nuclear localization of PP1α
Association of Tat with CDK9/cyclin T1 [1]: no effect on the association of Tat with CDK9/cyclin T1
PP1α co-precipitation with Flag-Tat [1]: reduced the amount of PP1α-EGFP that co-precipitated with Tat
Effect on cellular proteome (293T cells): did not significantly change the cellular proteome
Interaction of PP1 with PNUTS and NIPP1 [2]: without any effect on the interaction of PP1 with PNUTS or NIPP1
Tat association with PP1 (microcystin precipitation) [2]: Tat association was reduced
Concentration from which HIV-1 replication is inhibited (HIV-1 NL4-3): ≥ 10 µM
IC50 (CEM cells): > 25 µM
Percent of inhibition of HIV-1 transcription in CEM GFP cells infected with Ad-Tat ([3]; 25 µM of each compound, 48 hours): 96%
IC50 ([3]; Human immunodeficiency virus 1, CEM-GFP, 24 h, read-out: Inhibition of HIV-1 Transcription in CEM-GFP cells (IC50, μM)): 10 µM
